Measurements from patent US10669284B2, “Fused thiazolopyrimidine derivatives as MNKS inhibitors” (LIFEARC, priority 2015, dated 2020).
Like-named read-outs stand apart in the source and are kept apart here.

Key:
Full-length human MNK2 = target: T1, Full-length human MNK2 (Homo sapiens, UniProt Q9HBH9, T379D); assay: MNK2 biochemical IC50 assay (Caliper Mobility Shift Assay)
T1 construct: GST (N); purchased Carna Biosciences 02-146; host or cells: baculovirus expression system
Excerpt: (§1) The phosphorylated peptide product and unphosphorylated peptide substrate were detected using a Caliper Mobility Shift Assay using the Caliper LabChip EZ Reader II.
(§2) The Caliper Mobility Shift Assay technology is based on the utilisation of a microfluidic chip to measure the conversion of a fluorescent non-phosphorylated peptide substrate to phosphorylated product by electrophoresis separation of substrate and product and detection via Laser-induced fluorescence. The LabChip EZ Reader software calculates the relative heights of substrate and product peaks and reports the peak ratio (Product peak(P) divided by the sum of Product peak(P) and Substrate peak(S)). The percent-conversion is calculated as 100×[(P/(P+S)]. All assays were set up to run in the linear phase with a maximum of 10 percent substrate conversion.
(§3) These were N-terminal GST fusion proteins expressed in baculovirus expression system and purified by glutathione sepharose affinity chromatography. […] All other assay reagents were sourced from Sigma.
(§4) The assay incubation times were adjusted depending on the concentration of ATP used. Assays were performed at low (50 uM) and high (1 mM) ATP. The low ATP values were selected to run at Km conditions for the standard assay to allow relative potencies to be compared across other kinases. The high ATP concentration was selected as representative of cellular ATP concentrations, and for an indication of ATP competition, where a significant shift (greater than half log) in apparent potency would be expected compared to Km conditions. All IC50 values reported are the average of at least two independent experiments.
Reactions were performed as above using 10 nM MNK2 in the assay. Standard assays contained 50 uM ATP and high concentration ATP assays contained 1 mM ATP. […] All other conditions were the same.

[1] = system: phosphorylation of eIF4E at ser209 in MV4.11 cell line; assay: MNK cellular activity phospho-eIF4E detection assay (Alphascreen Surefire); type: cell-based; details: Homo sapiens; MV4.11 cell line, phospho-eIF4E (ser209) Alphascreen Surefire; read-out: P(IC50) elF4E (converted)
Protocol: The assay detection is based on the formation of sandwich antibody complexes coupled to donor and acceptor beads. Excitation at 680 nm causes the transfer of a singlet oxygen species between donor and acceptor beads when they are in close proximity by binding to the analyte ([…]), which results in the emission of light at 520-620 nm.
Cells were then lysed and the Alphascreen Surefire protocol followed according to manufacturer's recommendations. 8 ul Acceptor beads (1:50 dilution in kit activation buffer) was added to lysate, shaken 150 rpm for 2 min and incubated for 1.5 hr at room temperature. 3 ul Donor beads (1:20 dilution in kit dilution buffer) were then added, shaken 150 rpm for 2 min and incubated for a further 1.5 hr at room temperature after which the plates were read on Pherastar FS using Alphascreen optic module.
Data were normalised relative to untreated DMSO only controls and curves repeated in duplicate within experiments. Data reported are averages of at least 2 independent experiments.

Full-length human MNK1 = target: T2, Full-length human MNK1 (Homo sapiens, UniProt Q9BUB5, T385D); assay: MNK1 biochemical IC50 assay (Caliper Mobility Shift Assay)
T2 construct: GST (N); purchased Carna Biosciences 02-145; host or cells: baculovirus expression system
T2 sequence (Q9BUB5 1-424 isoform Q9BUB5-2 T344D): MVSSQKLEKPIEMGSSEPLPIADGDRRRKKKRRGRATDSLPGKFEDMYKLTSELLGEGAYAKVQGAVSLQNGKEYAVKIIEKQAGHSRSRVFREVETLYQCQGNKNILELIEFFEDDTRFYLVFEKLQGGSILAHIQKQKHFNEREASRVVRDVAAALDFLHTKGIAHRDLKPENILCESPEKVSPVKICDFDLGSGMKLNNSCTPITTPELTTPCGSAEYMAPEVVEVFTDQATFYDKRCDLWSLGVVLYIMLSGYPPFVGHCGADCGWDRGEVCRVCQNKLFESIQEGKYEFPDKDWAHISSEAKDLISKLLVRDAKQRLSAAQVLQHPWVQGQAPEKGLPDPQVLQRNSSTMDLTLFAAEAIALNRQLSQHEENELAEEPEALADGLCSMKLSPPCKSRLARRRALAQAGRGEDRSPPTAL
Excerpt: as §1, §2, §3
Compounds were serially diluted in DMSO to generate a 10-point half log dilution curve with a final top concentration of 100 uM in the assay. […] Compounds were pre-incubated with enzyme and peptide in reaction buffer for 30 mins prior to addition of ATP to initiate the reaction. Final assay concentrations were 3 nM MNK1, 2 uM peptide substrate, 50 uM ATP, 50 mM Hepes pH 7.0, 0.01% BSA, 10 mM MgCl2, 1 mM dithiothrietol.
as §4

[2] = read-out: P(IC50) MNK2 (converted)
[3] = read-out: P(IC50) MNK1 (converted)

T1 sequence (Q9HBH9 whole entry T379D): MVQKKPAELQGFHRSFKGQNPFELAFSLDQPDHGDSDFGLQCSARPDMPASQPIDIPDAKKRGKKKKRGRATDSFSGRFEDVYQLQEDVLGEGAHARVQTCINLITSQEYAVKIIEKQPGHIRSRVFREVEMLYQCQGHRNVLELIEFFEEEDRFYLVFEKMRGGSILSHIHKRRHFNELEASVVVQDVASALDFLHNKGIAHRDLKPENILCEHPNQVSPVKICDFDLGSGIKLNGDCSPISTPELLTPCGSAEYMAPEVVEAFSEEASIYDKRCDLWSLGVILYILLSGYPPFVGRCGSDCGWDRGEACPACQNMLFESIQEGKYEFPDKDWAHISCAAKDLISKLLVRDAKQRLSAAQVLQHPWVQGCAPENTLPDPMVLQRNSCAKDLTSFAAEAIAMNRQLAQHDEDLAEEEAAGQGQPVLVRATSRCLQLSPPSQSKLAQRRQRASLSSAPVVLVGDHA

IC50 (Full-length human MNK2; [2])	IC50 [1]	IC50 (Full-length human MNK1; [3])	IC50 (Full-length human MNK2)	IC50 (Full-length human MNK1)	Compound
0.0251 µM	0.0398 µM	0.0316 µM			CC1Cc2ccccc2N1c1ncnc2sc(C(=O)NCC3CCNCC3)nc12 (stereo in doubt) [Example 134, 7-[(2R)-2-methylindolin-1-yl]-N-(4-piperidyl-methyl)thiazolo[5,4-d]pyrimidine-2-carboxamide]
0.0501 µM	0.0501 µM	0.0631 µM			CC(C)Oc1cc(F)ccc1Nc1ncnc2sc(C(=O)NCCCN(C)C)nc12 [Example 3, N-[3-(Dimethylamino)propyl]-7-(4-fluoro-2-isopropoxy-anilino)thiazolo[5,4-d]pyrimidine-2-carboxamide]
0.0398 µM	0.1 µM	0.0501 µM			CC(C)Oc1cc(F)ccc1Nc1ncnc2sc(C(=O)NCC3CNCCO3)nc12 (stereo not shown) [Example 4, 7-(4-fluoro-2-isopropoxy-anilino)-N-(morpholin-2-ylmethyl)thiazolo[5,4-d]pyrimidine-2-carboxamide]
0.251 µM	0.316 µM	0.251 µM			CC(C)Oc1cc(F)ccc1Nc1ncnc2sc(C(=O)N3CC4(CNC4)C3)nc12 [Example 7, 2,6-diazaspiro[3.3]heptan-2-yl-[7-(4-fluoro-2-isopropoxy-anilino)thiazolo[5,4-d]pyrimidin-2-yl]methanone]
0.0501 µM	0.0631 µM	0.0501 µM			CC(C)Oc1cc(F)ccc1Nc1ncnc2sc(C(=O)NCCCO)nc12 [Example 8, 7-(4-fluoro-2-isopropoxy-anilino)-N-(3-hydroxypropyl)thiazolo[5,4-d]pyrimidine-2-carboxamide]
		0.0501 µM	0.0316 µM		CC(C)Oc1cc(F)ccc1Nc1ncnc2sc(C(=O)NCCN3CCNCC3)nc12 [Example 9, 7-(4-fluoro-2-isopropoxy-anilino)-N-(2-piperazin-1-ylethyl)thiazolo[5,4-d]pyrimidine-2-carboxamide]
0.316 µM	0.316 µM	0.398 µM			CC(C)Oc1cc(F)ccc1Nc1ncnc2sc(C(=O)N3CCC(CCO)CC3)nc12 [Example 11, [7-(4-fluoro-2-isopropoxy-anilino)thiazolo[5,4-d]pyrimidin-2-yl]-[4-(2 hydroxyethyl)-1-piperidyl]methanone]
0.0631 µM	0.0501 µM	0.126 µM			CC(C)Oc1cc(F)ccc1Nc1ncnc2sc(C(=O)NCC(O)CO)nc12 (stereo not shown) [Example 12, N-(2,3-dihydroxypropyl)-7-(4-fluoro-2-isopropoxy-anilino)thiazolo[5,4-d]pyrimidine-2-carboxamide]
0.0398 µM	0.0398 µM	0.0501 µM			CC(C)Oc1cc(F)ccc1Nc1ncnc2sc(C(=O)NCCCN3CCCC3)nc12 [Example 13, 7-(4-fluoro-2-isopropoxy-anilino)-N-(3-pyrrolidin-1-ylpropyl)thiazolo[5,4-d]pyrimidine-2-carboxamide]
0.0794 µM	0.398 µM	0.158 µM			CC(C)Oc1cc(F)ccc1Nc1ncnc2sc(C(=O)NCCC(=O)O)nc12 [Example 14, 3-[[7-(4-fluoro-2-isopropoxy-anilino)thiazolo[5,4-d]pyrimidine-2-carbonyl]amino]propanoic acid]
0.631 µM	0.251 µM	0.794 µM			CN(C)CCCNC(=O)c1nc2c(Nc3ccc(F)cc3O[C@@H]3CCCC[C@H]3O)ncnc2s1 [Example 15, N-[3-(dimethylamino)propyl]-7-[4-fluoro-2-[(1R,2R)-2-hydroxycyclohexoxy]anilino]thiazolo[5,4-d]pyrimidine-2-carboxamide]
0.1 µM	0.158 µM	0.1 µM			CN(C)CCCNC(=O)c1nc2c(Nc3ccc(F)cc3O[C@@H]3CCCOC3)ncnc2s1 [Example 16, N-[3-(dimethylamino)propyl]-7-[4-fluoro-2-[(3R)-tetrahydropyran-3-yl]oxy-anilino]thiazolo[5,4-d]pyrimidine-2-carboxamide]
0.1 µM	0.1 µM	0.126 µM			CN(C)CCCNC(=O)c1nc2c(Nc3ccc(F)cc3O[C@H]3CCCOC3)ncnc2s1 [Example 17, N-[3-(dimethylamino)propyl]-7-[4-fluoro-2-[(3S)-tetrahydropyran-3-yl]oxy-anilino]thiazolo[5,4-d]pyrimidine-2-carboxamide]
0.0501 µM	0.0398 µM	0.0501 µM			CC(C)Oc1c(F)cccc1Nc1ncnc2sc(C(=O)NCCCN(C)C)nc12 [Example 18, N-[3-(dimethylamino)propyl]-7-(3-fluoro-2-isopropoxy-anilino)thiazolo[5,4-d]pyrimidine-2-carboxamide]
0.794 µM	0.251 µM	0.794 µM			CN(C)CCCNC(=O)c1nc2c(Nc3ccc(F)cc3O[C@H]3CCCC[C@@H]3O)ncnc2s1 [Example 19, N-[3-(dimethylamino)propyl]-7-[4-fluoro-2-[(1S,2S)-2-hydroxycyclohexoxy]anilino]thiazolo[5,4-d]pyrimidine-2-carboxamide]
1.26 µM	0.316 µM				CO[C@H]1CCCC[C@@H]1Oc1cc(F)ccc1Nc1ncnc2sc(C(=O)NCCCN(C)C)nc12 [Example 21]
		0.00631 µM	0.00398 µM		CN(C)CCCNC(=O)c1nc2c(N3CC(C)(C)c4ccccc43)ncnc2s1 [Example 25, N-[3-(Dimethylamino)propyl]-7-(3,3-dimethylindolin-1-yl)thiazolo[5,4-d]pyrimidine-2-carboxamide]
		0.01 µM	0.00794 µM		CN(C)CCCNC(=O)c1nc2c(N3CCc4ccccc43)ncnc2s1 [Example 27, N-[3-(Dimethylamino)propyl]-7-indolin-1-yl-thiazolo[5,4-d]pyrimidine-2-carboxamide]
1.58 µM	0.631 µM				O=C(NCC1CCNCC1)c1nc2c(Nc3ccc(F)cc3OC(F)(F)F)ncnc2s1 [Example 59, 7-[4-fluoro-2-(trifluoromethoxy)anilino]-N-(4-piperidylmethyl)thiazolo[5,4-d]pyrimidine-2-carboxamide]
			0.002 µM	0.002 µM	O=C(NCCCN1CCCC1)c1nc2c(N3CCc4cc(F)ccc43)ncnc2s1 [Example 68]
0.631 µM	0.501 µM				CC(C)Oc1ccc2c(c1)CCN2c1ncnc2sc(C(=O)NC3CCOCC3)nc12 [Example 116, 7-(5-Isopropoxyindolin-1-yl)-N-tetrahydropyran-4-yl-thiazolo[5,4-d]pyrimidine-2-carboxamide]
0.00316 µM		0.00316 µM			O=C(NCC1CCNCC1)c1nc2c(N3CCc4cc(Cl)ccc43)ncnc2s1 [Example 168, 7-(5-Chloroindolin-1-yl)-N-(4-piperidylmethyl)thiazolo[5,4-d]pyrimidine-2-carboxamide]

Compound	IC50 (Full-length human MNK2; [2])	IC50 [1]	IC50 (Full-length human MNK1; [3])	IC50 (Full-length human MNK2)	IC50 (Full-length human MNK1)
CC(C)Oc1cc(F)ccc1Nc1ncnc2sc(C(=O)NC3CC4CCC(C3)N4)nc12 (stereo not shown) [Example 5, N-(8-azabicyclo[3.2.1]octan-3-yl)-7-(4-fluoro-2-isopropoxy-anilino)thiazolo[5,4-d]pyrimidine-2-carboxamide]	0.0794 µM	0.1 µM	0.158 µM		
CC(C)Oc1cc(F)ccc1Nc1ncnc2sc(C(=O)NC3CC4CCC(C3)N4C(=O)OC(C)(C)C)nc12 (stereo not shown) [Example 6, tert-butyl 3-[[7-(4-fluoro-2-isopropoxy-anilino)thiazolo[5,4-d]pyrimidine-2-carbonyl]amino]-8-azabicyclo[3.2.1]octane-8-carboxylate]	0.398 µM	0.251 µM	0.794 µM		
